IC50 and Ki data for eleven compounds are collected here from patent US11702418B2, “SOS1 inhibitors” (priority 2019, dated 2023).

Where a name gives a salt, the structure may show the parent alone. Read-outs that look alike come from different tables or passages of the source.

In one assay the test system is pERK in MKN1 cells. In words: cells. The format is cell-based. The settings on record: Homo sapiens.
For assay [1], the target named is recombinant human SOS1 polypeptide (amino acids 560-1049) (Homo sapiens (Human), UniProt Q07889). In words: biochemical. The assay is classed as binding. The conditions noted are these: read-out: Ki, Inhibition of Labeled Tracer Binding to SOS1.
Sequence of recombinant human SOS1 polypeptide (amino acids 560-1049) (Q07889 560-1049): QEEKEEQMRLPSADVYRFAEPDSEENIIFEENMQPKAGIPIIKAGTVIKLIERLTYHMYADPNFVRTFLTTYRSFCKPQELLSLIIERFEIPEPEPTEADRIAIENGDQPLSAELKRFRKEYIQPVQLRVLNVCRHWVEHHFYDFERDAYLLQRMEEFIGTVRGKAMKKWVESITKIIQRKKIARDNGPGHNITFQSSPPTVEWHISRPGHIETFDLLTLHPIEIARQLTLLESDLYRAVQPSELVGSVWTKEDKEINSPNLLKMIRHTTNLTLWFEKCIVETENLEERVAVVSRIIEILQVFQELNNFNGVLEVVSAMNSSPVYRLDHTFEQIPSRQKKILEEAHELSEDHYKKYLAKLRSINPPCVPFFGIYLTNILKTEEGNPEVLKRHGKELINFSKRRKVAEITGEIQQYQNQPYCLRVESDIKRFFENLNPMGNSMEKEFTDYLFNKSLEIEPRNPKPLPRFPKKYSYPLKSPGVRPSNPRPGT
The mark [2] stands for this setting: MKN-1, pERK inhibition, In-Cell Western, MKN1 or H358 cells (Table 24 does not say which), 0.5-1 hour incubation, read-out: IC50.
[3] abbreviates: HTRF displacement, Cy5 labelled tracer, Morrison equation for competitive binding.

Procedure for pERK in MKN1 cells: The cells were incubated for approximately 0.5-1 hour with the compounds solubilized in DMSO at 37° C. Cells were immediately fixed by adding 50 μL of 4% formaldehyde to all wells in a fume hood and the plates were incubated for 20 minutes at room temperature. The formaldehyde was discarded from the plates and 150 μL of ice-cold methanol was added to permeabilize the cells for 10 minutes at −20° C. The methanol was discarded from each of the plates and any liquid remaining in the plate by tapping the plate against paper towels. […] The plates were incubated overnight at 4° C. on a shaker.
On Assay day 2, the primary antibody solution was removed. […] The secondary antibody solution as removed and each plate was washed with PBST 3× times. Any liquid remaining was discarded and the plate was imaged using the Licor Odyssey machine according to the manufacturer's instruction, using a set focus length at 3 mm and both 800 nm and 700 nm filters. The GAPDH normalized scan values for each well were divided by the average of vehicle wells to get the % of pERK inhibition. The IC50 values were then calculated with the Graph pad Prism software.

Broadly, the IC50 is the point on the concentration scale where inhibition reaches its midpoint. For orientation: Ki means the dissociation constant of the complex between target and ligand, obtained from inhibition or displacement. With `Cc1nnc(N[C@H](C)c2cccc(C(F)(F)C(C)(C)O)c2F)c2cc(N3CC4CC(C3)O4)ncc12` [Example 20-3, 1-(3-((1R)-1-((7-(6-oxa-3-azabicyclo[3.1.1]heptan-3-yl)-4-methylpyrido[3,4-d]pyridazin-1-yl)amino)ethyl)-2-fluorophenyl)-1,1-difluoro-2-methylpropan-2-ol], the IC50 in the assay with pERK in MKN1 cells (setting [2]) stood at 16 nM. In addition, in assay [1] (setting [3]), the Ki was 0.92 nM.

Take `Cc1c([C@@H](C)Nc2nnc(C)c3ccc(N4CCN(C)CC4)cc23)cccc1C(F)(F)F` [Example 6-1, (R)-4-methyl-N-(1-(2-methyl-3-(trifluoromethyl)phenyl)ethyl)-7-(4-methylpiperazin-1-yl)phthalazin-1-amine]: the IC50 in the assay with pERK in MKN1 cells (setting [2]) was determined as 79 nM. In addition, the Ki in assay [1] (setting [3]) was 0.11 nM.

Consider `Cc1c(C#N)cccc1[C@@H](C)Nc1nnc(C)c2ccc(N3CCC(N4CCC4)CC3)cc12` [Example 10-68, (R)-3-(1-((7-(4-(azetidin-1-yl)piperidin-1-yl)-4-methylphthalazin-1-yl)amino)ethyl)-2-methylbenzonitrile], for which the IC50 in the assay on pERK in MKN1 cells (setting [2]) was determined as 36 nM. Further, in assay [1] (setting [3]), the Ki turned out to be 0.75 nM.

`Cc1cc(C#N)cc([C@@H](C)Nc2nnc(C)c3ccc(N4CCOCC4)cc23)c1` [Example 21-4, (R)-3-methyl-5-(1-((4-methyl-7-morpholinophthalazin-1-yl)amino)ethyl)benzonitrile] had an IC50 in the assay on pERK in MKN1 cells (MKN-1, pERK inhibition, In-Cell Western, MKN1 or H358 cells (Table 24 does not say which), 0.5-1 hour incubation) of 118 nM. Also, in assay [1], the Ki is 13.7 nM.

In the assay with pERK in MKN1 cells (MKN-1), `Cc1c([C@@H](C)Nc2nnc(C)c3ccc(N4CCC5(CCNCC5)C4=O)cc23)cccc1C(F)(F)F` [Example 10-39, (R)-2-(1-methyl-4-((1-(2-methyl-3-(trifluoromethyl)phenyl)ethyl)amino)phthalazin-6-yl)-2,8-diazaspiro[4.5]decan-1-one hydrochloride salt] showed an IC50 of 110 nM. Moreover, the Ki in assay [1] came to 1.49 nM.

On to `Cc1nnc(N[C@H](C)c2cccc(C(F)(F)F)c2F)c2cc(N3CC(C)(N(C)C)C3)ccc12` [Example 10-78, (R)-7-(3-(dimethylamino)-3-methylazetidin-1-yl)-N-(1-(2-fluoro-3-(trifluoromethyl)phenyl)ethyl)-4-methylphthalazin-1-amine], for which the IC50 with pERK in MKN1 cells (setting [2]) is 114 nM. Besides, the Ki in assay [1] (setting [3]) is 1.16 nM.

Compound `Cc1c([C@@H](C)Nc2nnc(C)c3ccc(N4CCNC[C@@H](F)C4)cc23)cccc1C(F)(F)F` [Example 10-63, 7-((R)-6-fluoro-1,4-diazepan-1-yl)-4-methyl-N-((R)-1-(2-methyl-3-(trifluoromethyl)phenyl)ethyl)phthalazin-1-amine Hydrochloride salt] gave an IC50 in the assay on pERK in MKN1 cells (MKN-1) of 50 nM. Moreover, in assay [1], the Ki was 0.54 nM.

In the case of `CNCc1ccccc1-c1ccc([C@@H](C)Nc2nnc(C)c3cnc(N4CCOCC4)cc23)s1` [Example 6-2, (R)-4-methyl-N-(1-(5-(2-((methylamino)methyl)phenyl)thiophen-2-yl)ethyl)-7-morpholinopyrido[3,4-d]pyridazin-1-amine], the IC50 with pERK in MKN1 cells (setting [2]) turned out to be 100 nM. The Ki in assay [1] (setting [3]) turned out to be 1.35 nM.

For `CNCc1c(F)cccc1-c1ccc([C@@H](C)Nc2nnc(C)c3cnc(N4CCOCC4)cc23)s1` [Example 6-13, (R)-N-(1-(5-(3-fluoro-2-((methylamino)methyl)phenyl)thiophen-2-yl)ethyl)-4-methyl-7-morpholinopyrido[3,4-d]pyridazin-1-amine], the IC50 with pERK in MKN1 cells (setting [2]) was 20 nM. In addition, the inhibition constant Ki in assay [1] (setting [3]) stood at 0.29 nM.

On to `COc1c(C#N)cccc1[C@@H](C)Nc1nnc(C)c2cnc(N3CCN4CCOCC4C3)cc12` (stereo in doubt) [Example 17-2, 3-((R)-1-((7-((R)-hexahydropyrazino[2,1-c][1,4]oxazin-8(1H)-yl)-4-methylpyrido[3,4-d]pyridazin-1-yl)amino)ethyl)-2-methoxybenzonitrile], for which, in the assay with pERK in MKN1 cells (setting [2]), the IC50 came out at 50 nM. In addition, the Ki in assay [1] (setting [3]) came to 12.5 nM.

Take `Cc1c(C#N)cc(F)cc1[C@@H](C)Nc1nnc(C)c2cnc(N3CC4CC(C3)O4)cc12` [Example 12-106]: the IC50 in the assay with pERK in MKN1 cells (setting [2]) turned out to be 114 nM. Moreover, the Ki in assay [1] (setting [3]) is 11.1 nM.
